Laboratory results from ChEMBL document CHEMBL1151280, “ent-Kaurane Diterpenoids from Isodon albopilosus” (J Nat Prod, 2005).

Tested on: HepG2
Assay: Cytotoxicity against human HepG2 cells after 24 hrs by Alamar blue assay
Assay type: functional, cell-based
Conditions: for IC50: HepG2, 24 h

Compound | Activity | IC50 [µM]
C=C1C[C@@]23[C@H](O)C[C@@H]4[C@@](C)(CO)CCC[C@@]4(C)[C@@H]2C[C@H](O)[C@@H]1[C@H]3O | Not toxic | –
C=C1C(=O)[C@@]23[C@H](O)C[C@@H]4[C@@](C)(COC(C)=O)CCC[C@@]4(C)[C@@H]2C[C@H](O)[C@@H]1[C@H]3O [ALBOPILOSIN A] | – | 24.9
C[C@@H]1[C@@H]2C(=O)C[C@H]3[C@]4(C)CCC[C@](C)(CO)[C@H]4C[C@@H](O)[C@@]3([C@@H]1O)[C@@H]2O | Not toxic | –
C=C1[C@H]2[C@@H](O)[C@@]3([C@H](O)C[C@@H]4[C@@](C)(CO)CCC[C@@]4(C)[C@@H]3C[C@@H]2O)[C@@H]1OC(C)=O | Not toxic | –
C=C1C(=O)[C@@]23[C@H](O)C[C@H]4[C@@](C)(CCC[C@]4(C)C(=O)O)[C@@H]2CC[C@@H]1[C@H]3O | Not toxic | –
C=C1[C@@H](OC(C)=O)[C@@]23[C@H](O)C[C@@H]4[C@@](C)(CO)CCC[C@@]4(C)[C@@H]2CC[C@@H]1[C@H]3O | Not toxic | –
CC(=O)OC[C@@]1(C)CCC[C@]2(C)[C@@H]1C[C@@H](O)[C@@]13C(=O)[C@H](CO)[C@@H]([C@H]1O)[C@@H](O)C[C@@H]23 | Not toxic | –
C=C1C(=O)[C@@]23[C@H](O)C[C@H]4[C@@](C)(CCC[C@]4(C)C=O)[C@@H]2C[C@H](O)[C@@H]1[C@H]3O [MACROCALYXIN C] | – | 30.8
C[C@H]1C(=O)[C@@]23[C@H](O)C[C@H]4[C@@](C)(CCC[C@]4(C)C(=O)O)[C@@H]2C[C@H](O)[C@@H]1[C@H]3O | Not toxic | –
C=C1C(=O)[C@@]23[C@H](O)C[C@H]4[C@@](C)(CCC[C@]4(C)C=O)[C@@H]2CC[C@@H]1[C@H]3O [ALBOPILOSIN H] | – | 13.3
C=C1C(=O)[C@@]23[C@H](O)C[C@H]4[C@@](C)(CCC[C@]4(C)C(=O)O)[C@@H]2C[C@H](O)[C@@H]1[C@H]3O | Not toxic | –
C=C1C(=O)[C@@]23[C@H](O)C[C@@H]4[C@@](C)(CO)CCC[C@@]4(C)[C@@H]2C[C@H](O)[C@@H]1[C@H]3O [RABDOKUNMIN C] | – | 42.1
C=C1[C@H]2[C@@H](O)[C@@]3([C@H](O)C[C@H]4[C@@](C)(CCC[C@]4(C)C=O)[C@@H]3C[C@@H]2O)[C@@H]1OC(C)=O | Not toxic | –
C[C@H]1C(=O)[C@@]23[C@H](O)C[C@@H]4[C@@](C)(CO[C@@H]5O[C@H](CO)[C@@H](O)[C@H](O)[C@H]5O)CCC[C@@]4(C)[C@@H]2C[C@H](O)[C@@H]1[C@H]3O | Not toxic | –
C=C1C(=O)[C@@]23[C@H](O)C[C@@H]4[C@@](C)(CO)CCC[C@@]4(C)[C@@H]2CC[C@@H]1[C@H]3O [EXCISANIN C] | – | 13.2
